Test results: US20220096526A1, “METHODS AND COMPOSITIONS FOR THE TREATMENT AND PREVENTION OF OCULAR DISEASES AND CONDITIONS” (Tufts Medical Center, Inc., priority 2019, published 2022)

Experiments:
sorted splenic pDCs [1] = test: NGF and CREB relative mRNA (qRT-PCR) in cultured sorted splenic pDCs; type: cell-based, mouse
Method: pDCs were isolated from DPE-GFP×RAG1^−/− and cDCs were purified from naïve WT C57BL/6 mice, respectively. DPE-GFP×RAG1^−/− mice underwent subcutaneous injection of 5×10^6 B16 murine Flt3L-secreting melanoma tumor cells. 10-14 days later, mice were euthanized; spleens were harvested, and mechanically disturbed using a 5 ml syringe plunger and were filtered through a […] cell strainer (BD Falcon). Next, after incubation with ice-cold ammonium chloride (ACK) lysis buffer (Biofluids, Rockville, Md.) for 1 minute to remove contaminating RBCs, cells were washed with PBS. GFP-tagged pDCs were sorted via Moflo Cell Sorter (Beckman Coulter, Brea, Calif.). For obtaining pDCs for co-culturing TGCs with different densities of pDCs, as well as for flow cytometry and presence of NGF mRNA on GFP-tagged splenic pDCs, and comparing the NGF mRNA content in pDCs and cDCs, naïve DPE-GFP×RAG1^−/− mice were used. cDCs were purified using CD11c MicroBeads (Miltenyi Biotec) according to the manufacturer's instruction, with a purity of more than 85%.
(§1) Isolated splenic pDCs were cultured in 48 well plates (200,000 cells/well) for 3 days with Ham's F-12 Nutrient Mix (Gibco, Carlsbad, Calif.) supplemented with 10% heat inactivated fetal bovine serum (FBS; Gemini Bioproducts, Woodland, Calif.), and 1% penicillin/streptomycin (Life Technologies, Carlsbad, Calif.). Cells were treated with 1, 5, and 10 μg/ml Imiquimod (InvivoGen, San Diego, Calif.) or PBS upon seeding. In another set of experiments, cells were pretreated with 10 μM SB 203580 (p38 MAP kinase inhibitor; Sigma-Aldrich) or PBS 1 hour prior to addition of 1 μg/ml Imiquimod (InvivoGen) or PBS. Cells were harvested for RNA or protein extraction 3 days after culture.
(§2) Corneal epithelium was removed with fine forceps following 30 minutes incubation with PBS containing 20 mM EDTA (Sigma-Aldrich) at 37° C. Next, 4-6 corneal stromas were pooled and lysed using BeadBug Microtube Homogenizer (Benchmark Scientific, Inc., Edison, N.J.). Next, RNA was isolated from the corneal stroma using RNeasy Plus Universal Mini kit (QIAGEN, Germantown, Md.). For isolating RNA from freshly sorted pDCs, purified cDCs, cultured pDCs, and cultured TGCs, RNeasy Plus Micro Kit (QIAGEN) was used. RNA yield was measured by spectroscopy (NanoDrop ND-1000; NanoDrop Technologies, Inc., Wilmington, Del.). cDNA was synthetized using 300 ng of template RNA using QuantiTect Reverse Transcription kit (Qiagen). qRT-PCR was performed using iTaq Universal SYBR Green Supermix (Biorad, Hercules, Calif.) and Eppendorf Mastercycler RealPlex 2 (Eppendorf, Hauppauge, N.Y.) with the primers described below. Relative mRNA levels were measured with ΔΔCT method.

sorted splenic pDCs [2] = test: Phospho-CREB protein level in cultured splenic pDC lysates (Bio-Plex); type: cell-based, mouse; conditions: 3 days
Method: as §1
On day 3 following culture of sorted pDCs, cells were lysed via Bio-Plex Pro Cell Signaling Reagent Kit (Biorad) supplemented with phosphotase inhibitor cocktail (Roche) and phospho-CREB and β-actin levels were measured via phospho-CREB and β-actin Bio-Plex assays (Biorad) according to the manufacturer's instructions. Relative phospho-CREB to total β-actin protein levels were normalized to control group.

sorted corneal pDCs = test: Single cell PCR on sorted corneal pDCs stimulated in vitro; type: cell-based, mouse; conditions: 24 hours in vitro, 3 μg/ml
Method: as §2
(§3) 8-10 corneas of naïve DPE-GFP×RAG1^−/− mice were excised and digested to yield a single cell suspension as described for flow cytometry experiments. GFP-tagged pDCs were sorted via Moflo Cell Sorter (Beckman Coulter) into a 96-well plate (100 cell/well) and cultured for 24 hours in RPMI (Gibco) supplemented with 10% 10% FBS (Gemini Bioproducts), 1% penicillin/streptomycin (Life Technologies), as well as 3 μg/ml Imiquimod, CpG-ODN, or control ODN (all InvivoGen). RNA isolation and cDNA synthesis were performed via REPLI-g Cell WGA & WTA kit (Qiagen). qRT-PCR was performed as described earlier. In another set of experiments, 4-6 corneas of DPE-GFP×RAG1^−/− mice undergoing inoculation of 10 μg Imiquimod, 10 μg CpG-ODN, or control ODN were harvested 24 hours following inoculation; next, corneas were digested and GFP-tagged pDCs were sorted (100 cell/condition) and underwent single cell PCR.

corneal pDCs = test: Ocular inoculation of TLR7 and 9 agonists, single cell PCR on sorted corneal pDCs; type: in vivo, mouse; conditions: 24 hours; for relative mRNA levels of NGF: 10 μg inoculated to cornea of DPE-GFP×RAG1−/− mice
Method: as §3
Following anesthetizing DPE-GFP×RAG1^−/− mice and application of topical proparacaine hydrochloride, central corneal epithelium was debrided using an Algerbrush II corneal rust ring remover with a 0.5-mm burr (Alger Equipment Co, Lago Vista, Tex.). 10 μg Imiquimod (TLR7 agonist; InvivoGen, San Diego, Calif.), 10 μg phosphorothioate CpG 1826 oligonucleotide (CpG-ODN; a synthetic TLR9 agonist; InvivoGen), or control oligonucleotide 1826 (Control ODN; InvivoGen) was topically administered on the eye. 24 hours later corneas were removed to sort corneal GFP-tagged pDCs and single cell PCR experiments.

[3] = test system: splenic pDCs (CD45+PDCA-1+CD45R/B220+); test: Endostatin expression in pDCs of cultured splenic cells (flow cytometry); type: cell-based, mouse; conditions: splenic cells of C57BL/6 mice, 1 μg/ml, 24 hours
Method: Spleens of wildtype C57BL/6 mice were harvested and subjected to mechanical disruption. Samples were then filtered and underwent RBC lysis via incubation with ammonium chloride RBC lysis buffer (ACK; Biofluids, Rockville, Md.). Next, isolated splenic cells were cultured in RPMI supplemented with 10% heat-inactivated fetal bovine serum (FBS; Gemini Bioproducts, Woodland, Calif.), and 1% penicillin/streptomycin (Life Technologies, Carlsbad, Calif.). Cells were treated with 1 μg/ml Imiquimod (TLR7 agonist; InvivoGen, San Diego, Calif.), CpG-ODN (TLR9 agonist; InvivoGen), or PBS control for 24 hours. The experiment was done in triplicate.
After 24 hours of culture, isolated splenic cells were subjected to flow cytometry. In brief, cells were washed and then fixed and permeabilized using Foxp3/Transcription Factor Fixation/Permeabilization Reagent (eBioscience, San Diego, Calif.) according to the manufacturer's instructions. Cells were then washed twice with permeabilization buffer (eBioscience), blocked in 1% anti-CD16/CD32 FcR mAb at 4° C. in permeabilization buffer, and subsequently labeled with combinations of primary antibodies against CD45 (Biolegend, San Diego, Calif.), PDCA-1 (Biolegend), CD45R/B220 (Biolegend), Endostain (Abcam, Cambridge, Mass.) or their respective isotype controls for 30 minutes at 4° C. in the dark. After washing, cells were labeled with fluorochrome-conjugated anti-rabbit secondary antibody (for Endostatin) for 30 minutes at 4° C. All samples were washed and reconstituted in permeabilization before data acquisition with a BD LSR II flow cytometer (BD Biosciences). Data were analyzed with FlowJo V9.2 (FlowJo, LLC).

[4] = test system: trigeminal ganglion cells (TGCs); test: Neurite outgrowth of TGCs in mono-culture or pDC co-culture with Imiquimod; type: cell-based, mouse; conditions: day 3
Method: Initially, 10-day old pups were euthanized, TGs were excised, chopped into small fragments, and digested in 2 mg/ml Collagenase D (Roche), 2 mg/ml DNAse I (Roche), and 5 mg/ml Dispase II (Sigma-Aldrich) in Hank's Balanced Salt Solution (Gibco) at 37° C. for 30 minutes. Next, after filtering, cells were layered over a 12.5% on 28% Percoll (GE Healthcare, Pittsburgh, Pa.) gradient in L15 media (Gibco) and centrifuged at 1300 g for 10 minutes. Following removing debris in the percoll interface, purified TGCs were recovered from the bottom of the gradient. Next, 10,000 cells/well were seeded in 24 well cell culture plates coated with growth factor reduced Matrigel (Corning Inc, Corning, N.Y.) in Ham's F-12 Nutrient Mix (Gibco) supplemented with 10% heat inactivated FBS (Gemini Bioproducts), 1% penicillin/streptomycin (Life Technologies) and 100 ng/ml NGF (Sigma-Aldrich). After one day of culture, media was changed to a similar media without NGF and sorted pDCs with different numbers were added to transwells. […] TGCs were used for RNA extraction and quantitative real-time PCR.
In another set of experiments, TGCs (10,000 cells/well) were cultured one day to adding 8,000 pDCs/well) to transwells. […] Neurite outgrowth was measured NeuronJ plugin (Meijering et al., Cytometry A 58(2):167-76, 2004) for ImageJ software (NIH, Bethesda, Md.).

| Compound | relative NGF mRNA level (sorted splenic pDCs [1]; splenic pDCs pre-treated 1 hour with 10 μM SB 203580, then 1 μg/ml Imiquimod, 3 days) [fold change] | phosphorylation of CREB (phospho-CREB normalized to β-actin) (sorted splenic pDCs [2]; splenic pDCs pre-treated 1 hour with 10 μM SB 203580, then 1 μg/ml Imiquimod, in comparison to control) [fold change] | CREB transcription (relative mRNA) (sorted corneal pDCs) | relative mRNA level of NGF (sorted corneal pDCs) | relative mRNA levels of NGF (corneal pDCs) [fold increase] | median fluorescent intensity of endostatin staining in pDCs [3] | percentage of endostatin-secreting pDCs [3] | NGF relative mRNA level (sorted splenic pDCs [1]; splenic GFP-tagged pDCs, 3 days, 1, 5 and 10 μg/ml Imiquimod) | CREB relative mRNA level (sorted splenic pDCs [1]; splenic GFP-tagged pDCs, 3 days, different concentrations of Imiquimod) | relative NGF mRNA level (sorted splenic pDCs [1]; splenic pDCs, 1 μg/ml Imiquimod, 3 days) [fold increase] | CREB mRNA level (corneal pDCs; ocular inoculation of 10 μg, vs control inoculation) | neurite outgrowth in TGC mono-culture ([4]; TGCs alone, 1, 5 or 10 μg/ml Imiquimod) | neurite outgrowth in pDC and TGC co-culture ([4]; TGCs with 8,000 pDCs/well in transwells, 1, 5 or 10 μg/ml Imiquimod) | phosphorylation of CREB (phospho-CREB normalized to β-actin) (sorted splenic pDCs [2]; splenic pDCs, 1 μg/ml Imiquimod) [fold increase] |
| --- | --- | --- | --- | --- | --- | --- | --- | --- | --- | --- | --- | --- | --- | --- |
| C[S+]([O-])c1ccc(-c2nc(-c3ccncc3)c(-c3ccc(F)cc3)[nH]2)cc1 (stereo not shown) [SB 203580] | 0.4±0.1 | 0.5±0.2 |  |  |  |  |  |  |  |  |  |  |  |  |
| phosphorothioate CpG 1826 oligonucleotide [CpG-ODN] |  |  | does not result in significant escalation in CREB transcription | did not result in increased NGF mRNA transcription | 1.8±1.6 | increases | increases the percentage of endostatin-secreting |  |  |  |  |  |  |  |
| CC(C)Cn1cnc2c(N)nc3ccccc3c21 [Imiquimod] |  |  | increases transcription of CREB | 2.6±0.7 fold increase | 7.3±1.1 | increases | increases the percentage of endostatin-secreting | dose dependent increase | dose-dependent increase | 2.0±0.6 | higher CREB mRNA levels | does not significantly enhance neurite outgrowth | enhances neurite outgrowth induced by pDCs | 3.8±1.5 |
